Counter-ions that a name gives are not always drawn.
Tests used:
in vivo = test: in vivo; design: species or system Golden Syrian hamsters; conditions: hamster, po
Method: For testing the efficacy of Compound 141 (phosphate salt of Compound 127) or its enantiomers (Compound 162/Compound 163) the following suspension formulation procedure was developed to make 100 ml of Compound 141 in suspension at 10 mg/ml concentration in 0.1 M tartaric buffer pH. 3 containing 0.5% hydroxypropylcellulose H-type (HPC-H):
Step 1: 1.50 g L-(+)-tartaric acid was dissolved in 100 mL water to prepare a tartaric acid solution. The solution was adjusted to pH 3 with 1.2 mL 5N NaOH solution to provide the tartaric acid buffer (100 mM). Step 2: 0.5 g HPC-H powder was added to 10 mL tartaric acid buffer (100 mM) at 50° C. The slurry was stirred for 30 minutes, and then diluted with 90 mL tartaric acid buffer (100 mM) at room temperature to provide 0.5% HPC-H. Agitation was continued until all particles were dissolved and the solution was completely free of gels. Step 3: 1.20 g Compound 141 (or Compound 162 or Compound 163) and 1.20 g mannitol were mixed and ground through a 120 mesh sieve, then the mixture was ground slightly again. The mixture was dispersed in 100 mL 0.5% HPC-H-L-(+)-Tartaric acid buffer (pH=3), then stirred until the drug dispersed evenly. The final pH was 2.6. All the above procedures were completed at room temperature (˜25° C.). The final concentration of Compound 141 was 10 mg/ml after correction of the salt weight.
The pharmacokinetic profile and bioavailability of Compound 141 (phosphate salt of Compound 127) in male Wistar rats following single intravenous (iv) and oral administration (p.o.) were measured according to the procedures of Example 4 and are summarized in Table 11. The pharmacokinetic profile of Compound 162 in male Golden Syrian masters following oral administration (pox) is summarized in Table 12.

[1] = system: LDLR protein expression in HepG2 cells; test: Western blot of LDLR protein in HepG2 cells, Compounds 162 and 163; type: cell-based, human; conditions: 20 μM, 16 or 24 hours, FIG. 7
Method: (§1) FIG. 7 is a Western blot analysis of LDLR and PCSK9 expression in HepG2 cells. HepG2 cells seeded in 12-well culture plates were cultured in 0.5% FBS MEM overnight. Compounds 162 and 163 at 20 μM were added to cells for the indicated times. Untreated and treated cells were harvested at the same indicated time points. Total cell lysates were isolated and 50 μg per sample was analyzed for LDLR and PCSK9 protein abundance by western blotting. The membrane was reprobed with anti-actin antibody to examine the equal loading of cell lysates.
Chicken anti-LDLR was purchased from Abcam. HepG2 cells cultured in 60-mm dishes were incubated overnight in medium containing 0.5% fetal bovine serum prior to the addition of compounds at 20 μM concentration. After 16 or 24 hours of treatment, total cell lysate was isolated and 50 μg of protein was separated on SDS-PAGE and transferred to nitrocellulose membrane for immunoblotting with anti-LDLR.

[2] = system: LDLR mRNA expression in HepG2 cells; test: LDLR mRNA expression in HepG2 cells, Compounds 162 and 163, real-time RT-PCR (Example 13); type: cell-based, human; conditions: FIGS. 6A and 6B
Method: In FIG. 6A HepG2 cells were exposed to Compounds 162 and 163 at the indicated concentrations (x-axis) for 24 h and plotted against normalized LDLR mRNA levels (fold of control in absence of compound). In FIG. 6B, HepG2 cells were treated with 20 μM of each compound for the indicted times (x-axis) and plotted against normalized LDLR mRNA levels (fold of control at 24 h).
The time- and dose-dependent effects of the enantiomers of Compound 127 (Compounds 162 and 163) on LDLR mRNA expression were examined using quantitative real-time RT-PCR assays (FIGS. 6A and 6B). HepG2 cells were treated with Compound 162 and Compound 163 at indicated concentrations for various times. Total RNA was isolated and […] was used to generate cDNA in a reaction containing random primers and M-MLV at 37° C. for 1 h in a volume of 25 μL. Real-time PCR was performed on the cDNA using MCEP REALPLEX 2 SYSTEM (Eppendorf) and Universal MasterMix (Applied Biosystems). Human LDLR and GAPDH Pre-Developed TaqMan Assay Reagents (Applied Biosystems) were used to assess the levels of mRNA expressions in HepG2. The levels of LDLR mRNA were normalized to that of GAPDH. Each RNA samples was assayed in triplicate. The fold activity was calculated by dividing mRNA abundance in compound treated cells with that of control.

[3] = system: PCSK9 protein expression in HepG2 cells; test: Western blot of PCSK9 protein in HepG2 cells, Compounds 162 and 163; type: cell-based, human; conditions: 20 μM, time-dependent, FIG. 7
Method: as §1
Recent studies have identified the liver secreted serine protease PCSK9 (proprotein convertase subtilisin type 9) as a natural inhibitor of LDLR protein expression that degrades hepatic LDLR protein, thus increasing circulating LDL-C levels.

[4] = system: PCSK9 mRNA expression in HepG2 cells; test: PCSK9 mRNA expression in HepG2 cells, simvastatin versus compound 91 (Example 10); type: cell-based, human; conditions: 24 hours, FIG. 4B
Method: (§2) In yet another experiment, HepG2 cells were treated with various compounds for 24 hours at the indicated doses. Total RNA was isolated and 2 μg was used to generate cDNA in a reaction containing random primers and M-MLV at 37° C. for 1 hour in a volume of 25 μL. Real-time PCR was performed on the cDNA using MCEP REALPLEX 2 SYSTEM (Eppendorf) and Universal MasterMix (Applied Biosystems). Human LDLR and GAPDH Pre-Developed TaqMan Assay Reagents (Applied Biosystems) were used to assess the levels of mRNA expressions in HepG2. The levels of LDLR mRNA were normalized to that of GAPDH. Each RNA samples was assayed in triplicate. The abundance of LDLR mRNA in untreated cells was defined as 1, and the amounts of LDLR mRNA from compound-treated cells were plotted relative to that value in FIG. 2B. The data shown are mean±s.d.
(§3) Total RNA was harvested for quantitative real-time RT-PCR analysis using method described in Examples 5B. The fold activity was derived by dividing the amount of normalized LDLR or PCSK9 mRNA in compound-treated cells over the amount of LDLR or PCSK9 mRNA in untreated control cells.

[5] = system: intracellular triglyceride in HepG2 cells; test: Reduction of intracellular triglyceride in HepG2 cells (Example 8); type: cell-based, human; conditions: B, compound dose ≦40 μM
Excerpt: Berberine chloride was used for comparison. The amount of TG in untreated control cells was defined as 100% and the amounts of TG in compound-treated cells were divided to that value.

[6] = system: LDLR mRNA expression in HepG2 cells; test: LDLR mRNA expression in HepG2 cells, simvastatin versus compound 91 (Example 10); type: cell-based, human; conditions: 24 hours, FIG. 4A
Method: as §2, §3

[7] = system: LDLR mRNA expression in HepG2 cells; test: LDLR mRNA expression in HepG2 cells, quantitative real-time RT-PCR (Example 7); type: cell-based, human; conditions: dose less than or equal to 10 μM, 24 hours
Procedure, shortened: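 LDLR mRNA quantified by TaqMan real-time PCR in triplicate, normalized to GAPDH and expressed relative to untreated cells set at 1 (mean±s.d.).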

| SMILES | pharmacokinetic properties and bioavailability, in words (in vivo) | LDLR mRNA and protein expression [1] | LDLR mRNA expression [2] | PCSK9 cellular levels [3] | PCSK9 mRNA expression [4] | Activity on reduction of cellular TG accumulation (% of control) [5] | LDLR mRNA expression [6] | Activity on LDLR mRNA expression (Fold of control) [7] |
| --- | --- | --- | --- | --- | --- | --- | --- | --- |
| COc1cc2c(cc1OC)C1Cc3ccc(OC)c(OS(=O)(=O)c4cccc(F)c4)c3CN1CC2 (single isomer, unassigned) [Compound 163, 2,3,10-Trimethoxy-5,6,7,8,13,13a-hexahydroisoquinolin[2,1-b]isoquinolin-9-yl 3-fluorobenzenesulfonate phosphate Salt (Enantiomer having negative optical rotation)] | excellent pharmacokinetic properties and good bioavailability | significantly enhance | upregulate LDLR mRNA expression | greatly decreased |  |  |  |  |
| COc1cc2c(cc1OC)C1Cc3ccc(OC)c(OS(=O)(=O)c4ccccc4)c3CN1CC2 (centres unmarked) [Compound 91, 2,3,10-trimethoxy-5,6,7,8,13,13a-hexahydroisoquinolino[2,1-b]isoquinolin-9-yl benzenesulfonate] |  |  |  |  | inhibits | 71.17 ± 2.23 % of control | dose-dependently increases | 3.77 ± 0.20 Fold of control |

Reference: patent US20110009628A1, “Compounds and Compositions for Modulating Lipid Levels and Methods of Preparing Same” (priority 2009, published 2011)
